# Test results reported in patent publication US9139587B2, “N1-pyrazolospiroketone acetyl-CoA carboxylase inhibitors” (Pfizer Inc., priority 2009, dated 2015).
# What was measured:
# [1] = target: T1, recombinant human ACC2 (rhACC2) (Homo sapiens, UniProt O00763, V2141I); test: recombinant hACC2 Transcreener assay (direct inhibition of ACC2 activity); assay type: biochemical; details: Transcreener ADP detection FP assay, 50 μM ATP, 30 μM acetyl-CoA, 50 min at 25° C.
# T1 construct: a full length Cytomax clone of ACC2 was purchased from Cambridge Bioscience Limited; made in house; host or cells: CHO cells (tetracycline-induced, pcDNA5 FRT TO-TOPO)
# Method: For example direct inhibition of ACC activity, for the compound of Formula (1) was determined using preparations of recombinant human ACC1 (rhACC1) and recombinant human ACC2 (rhACC2). Representative sequences of the recombinant human ACC1 and ACC2 that can be used in the assay are provided in FIG. 1 (SEQ ID NO. 1) and FIG. 2 (SEQ. ID NO. 2), respectively.
# [3] Preparation of rhACC2. Human ACC2 inhibition was measured using purified recombinant human ACC2 (hrACC2). Briefly, a full length Cytomax clone of ACC2 was purchased from Cambridge Bioscience Limited and was sequenced and subcloned into PcDNA5 FRT TO-TOPO (Invitrogen, Carlsbad, Calif.). The ACC2 was expressed in CHO cells by tetracycline induction and harvested in 5 liters of DMEM/F12 with glutamine, biotin, hygromycin and blasticidin with 1 μg/mL tetracycline (Invitrogen, Carlsbad, Calif.). The conditioned medium containing ACC2 was then applied to a Softlink Soft Release Avidin column (Promega, Madison, Wis.) and eluted with 5 mM biotin. 4 mgs of ACC2 were eluted at a concentration of 0.05 mg/mL (determined by A280) with an estimated purity of 95% ([…]). The purified ACC2 was dialyzed in 50 mM Tris, 200 mM NaCl, 4 mM DTT, 2 mM EDTA, and 5% glycerol. The pooled protein was frozen and stored at −80° C., with no loss of activity upon thawing. For measurement of ACC2 activity and assessment of ACC2 inhibition, test compounds were dissolved in DMSO and added to the rhACC2 enzyme as a 5× stock with a final DMSO concentration of 1%.
# [4] Measurement of human ACC2 inhibition. hACC2 was assayed in a Costar #3676 (Costar, Cambridge, Mass.) 384-well plate using the Transcreener ADP detection FP assay kit (Bellbrook Labs, Madison, Wisconsin) using the manufacturer's recommended conditions for a 50 uM ATP reaction. The final conditions for the assay were 50 mM HEPES, pH 7.2, 5 mM MgCl2, 5 mM tripotassium citrate, 2 mM DTT, 0.1 mg/mL BSA, 30 μM acetyl-CoA, 50 μM ATP, and 8 mM KHCO3 Typically, a 10 μl reaction was run for 50 min at 25° C., and 10 μl of Transcreener stop and detect buffer was added and the combination incubated at room temp for an additional 1 hour. The data was acquired on an Envision Fluorescence reader (Perkinelmer) using a 620 excitation Cy5 FP general dual mirror, 620 excitation Cy5 FP filter, 688 emission (S) and a 688 (P) emission filter.
# [2] = target: T2, recombinant human ACC1 (rhACC1) (Homo sapiens, UniProt Q13085, DEL44-44); test: recombinant hACC1 Transcreener assay (direct inhibition of ACC1 activity); assay type: biochemical; details: Transcreener ADP detection FP assay, 50 μM ATP, 30 μM acetyl-CoA, 120 min at 25° C.
# T2 construct: recombinant baculovirus containing full length human ACC1 cDNA; made in house; host or cells: SF9 insect cells (baculovirus)
# Method: For example direct inhibition of ACC activity, for the compound of Formula (1) was determined using preparations of recombinant human ACC1 (rhACC1) and recombinant human ACC2 (rhACC2). Representative sequences of the recombinant human ACC1 and ACC2 that can be used in the assay are provided in FIG. 1 (SEQ ID NO. 1) and FIG. 2 (SEQ. ID NO. 2), respectively. Preparation of rhACC1. Two liters of SF9 cells, infected with recombinant baculovirus containing full length human ACC1 cDNA, were suspended in ice-cold lysis buffer (25 mM Tris, pH 7.5; 150 mM NaCl; 10% glycerol; 5 mM imidazole (EMD Bioscience; Gibbstown, N.J.); 2 mM TCEP (BioVectra; Charlottetown, Canada); Benzonase nuclease (10000 U/100 g cell paste; Novagen; Madison, Wis.); EDTA-free protease inhibitor cocktail (1 tab/50 mL; Roche Diagnostics; Mannheim, Germany). Cells were lysed by 3 cycles of freeze-thaw and centrifuged at 40,000×g for 40 minutes (4° C.). Supernatant was directly loaded onto a HisTrap FF crude column (GE Healthcare; Piscataway, N.J.) and eluted with an imidazole gradient up to 0.5 M over 20 column volumes (CV). ACC1-containing fractions were pooled and diluted 1:5 with 25 mM Tris, pH 7.5, 2 mM TCEP, 10% glycerol and direct loaded onto a CaptoQ (GE Healthcare) column and eluted with an NaCl gradient up to 1 M over 20 CV's. Phosphate groups were removed from purified ACC1 by incubation with lambda phosphatase (100 U/10 μM target protein; New England Biolabs; Beverly, Mass.) for 14 hours at 4° C.; okadaic acid was added (1 μM final concentration; Roche Diagnostics) to inhibit the phosphatase. Purified ACC1 was exchanged into 25 mM Tris, pH 7.5, 2 mM TCEP, 10% glycerol, 0.5 M NaCl by 6 hour dialysis at 4° C. Aliquots were prepared and frozen at −80° C. […] The final conditions for the assay were 50 mM HEPES, pH 7.2, 10 mM MgCl2, 7.5 mM tripotassium citrate, 2 mM DTT, 0.1 mg/mL BSA, 30 μM acetyl-CoA, 50 μM ATP, and 10 mM KHCO3 Typically, a 10 μl reaction was run for 120 min at 25° C., and 10 μl of Transcreener stop and detect buffer was added and the combination incubated at room temp for an additional 1 hour. The data was acquired on a Envision Fluorescence reader (Perkinelmer) using a 620 excitation Cy5 FP general dual mirror, 620 excitation Cy5 FP filter, 688 emission (S) and a 688 (P) emission filter.
# T1 sequence (O00763 whole entry V2141I): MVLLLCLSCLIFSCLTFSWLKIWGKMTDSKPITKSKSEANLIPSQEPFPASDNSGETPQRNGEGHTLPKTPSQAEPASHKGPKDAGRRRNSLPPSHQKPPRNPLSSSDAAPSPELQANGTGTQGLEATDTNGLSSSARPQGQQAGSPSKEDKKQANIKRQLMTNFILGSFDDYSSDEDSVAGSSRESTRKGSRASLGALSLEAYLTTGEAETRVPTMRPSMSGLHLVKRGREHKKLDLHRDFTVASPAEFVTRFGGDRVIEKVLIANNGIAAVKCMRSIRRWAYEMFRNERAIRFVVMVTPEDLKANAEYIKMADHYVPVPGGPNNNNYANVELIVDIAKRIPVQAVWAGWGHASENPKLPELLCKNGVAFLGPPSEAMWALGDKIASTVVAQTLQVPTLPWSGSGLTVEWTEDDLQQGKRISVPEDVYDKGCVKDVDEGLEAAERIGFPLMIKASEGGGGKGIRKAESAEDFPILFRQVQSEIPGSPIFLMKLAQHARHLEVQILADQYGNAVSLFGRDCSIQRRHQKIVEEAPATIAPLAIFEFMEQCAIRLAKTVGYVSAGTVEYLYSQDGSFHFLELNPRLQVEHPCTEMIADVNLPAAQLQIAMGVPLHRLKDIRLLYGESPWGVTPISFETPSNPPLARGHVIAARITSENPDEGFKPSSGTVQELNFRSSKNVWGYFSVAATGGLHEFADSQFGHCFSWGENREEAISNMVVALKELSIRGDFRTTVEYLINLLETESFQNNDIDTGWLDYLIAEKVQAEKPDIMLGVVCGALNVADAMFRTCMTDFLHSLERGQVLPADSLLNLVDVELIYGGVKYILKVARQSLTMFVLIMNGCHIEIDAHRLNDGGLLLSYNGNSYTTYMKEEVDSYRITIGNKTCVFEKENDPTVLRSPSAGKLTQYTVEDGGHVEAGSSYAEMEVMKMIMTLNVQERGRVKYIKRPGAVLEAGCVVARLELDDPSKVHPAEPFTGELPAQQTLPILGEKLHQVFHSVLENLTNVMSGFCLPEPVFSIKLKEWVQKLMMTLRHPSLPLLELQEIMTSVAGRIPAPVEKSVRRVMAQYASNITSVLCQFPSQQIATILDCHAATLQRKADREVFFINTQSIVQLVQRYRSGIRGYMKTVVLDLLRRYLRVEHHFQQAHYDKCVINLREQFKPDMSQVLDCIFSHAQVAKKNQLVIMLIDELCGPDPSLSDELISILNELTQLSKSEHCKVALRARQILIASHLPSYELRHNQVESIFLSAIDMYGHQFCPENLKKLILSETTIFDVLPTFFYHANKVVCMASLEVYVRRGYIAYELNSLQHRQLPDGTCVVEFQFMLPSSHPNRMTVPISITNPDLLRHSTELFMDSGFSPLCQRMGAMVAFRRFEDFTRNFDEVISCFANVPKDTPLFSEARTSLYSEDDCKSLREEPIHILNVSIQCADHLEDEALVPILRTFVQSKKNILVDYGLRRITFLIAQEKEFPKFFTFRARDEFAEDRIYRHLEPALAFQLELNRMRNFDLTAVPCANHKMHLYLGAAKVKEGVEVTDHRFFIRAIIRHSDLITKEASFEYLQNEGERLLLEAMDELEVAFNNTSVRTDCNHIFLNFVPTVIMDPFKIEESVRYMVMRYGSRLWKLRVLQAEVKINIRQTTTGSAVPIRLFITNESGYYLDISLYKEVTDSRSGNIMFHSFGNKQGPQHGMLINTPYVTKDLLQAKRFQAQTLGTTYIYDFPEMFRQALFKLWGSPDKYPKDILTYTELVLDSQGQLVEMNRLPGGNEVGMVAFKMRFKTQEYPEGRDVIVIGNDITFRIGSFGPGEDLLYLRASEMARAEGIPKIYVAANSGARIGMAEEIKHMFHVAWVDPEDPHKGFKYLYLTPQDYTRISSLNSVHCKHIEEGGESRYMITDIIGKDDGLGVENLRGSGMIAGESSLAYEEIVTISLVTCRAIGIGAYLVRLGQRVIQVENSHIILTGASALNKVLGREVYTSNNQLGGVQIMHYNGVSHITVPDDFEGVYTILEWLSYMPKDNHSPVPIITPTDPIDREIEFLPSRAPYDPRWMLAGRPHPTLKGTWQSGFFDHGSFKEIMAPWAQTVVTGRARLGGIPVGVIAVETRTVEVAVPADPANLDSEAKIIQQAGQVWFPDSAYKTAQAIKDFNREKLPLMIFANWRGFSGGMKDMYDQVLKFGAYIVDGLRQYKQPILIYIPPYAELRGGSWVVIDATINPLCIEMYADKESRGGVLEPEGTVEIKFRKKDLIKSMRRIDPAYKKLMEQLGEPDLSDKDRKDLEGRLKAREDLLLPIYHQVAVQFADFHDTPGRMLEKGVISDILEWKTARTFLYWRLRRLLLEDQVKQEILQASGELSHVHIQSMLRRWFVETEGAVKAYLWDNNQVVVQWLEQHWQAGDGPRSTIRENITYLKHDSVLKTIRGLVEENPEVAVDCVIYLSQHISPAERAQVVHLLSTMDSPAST
IC50 [1] [nM],IC50 [2] [nM],SMILES
51,170,CC(C)(C)n1ncc2c1C(=O)CC1(CCN(C(=O)c3ccc4c(c3)CC(=O)N4)CC1)C2 [Example 2A-30]
28.8,43.5,CC(C)(C)n1ncc2c1C(=O)CC1(CCN(C(=O)c3ccc4cc[nH]c(=O)c4c3)CC1)C2 [Example 2A-31]
28.6,37,CC(C)(C)n1ncc2c1C(=O)CC1(CCN(C(=O)c3ccc4[nH]cnc4c3)CC1)C2 [Example 2A-32]
14.5,53.7,CC(C)n1ncc2c1C(=O)CC1(CCN(C(=O)c3ccc4[nH]c(=O)[nH]c4c3)CC1)C2 [Example 2A-33]
32.1,72.4,CC(C)(C)n1ncc2c1C(=O)CC1(CCN(C(=O)c3ccc4c(c3)NC(=O)CC4)CC1)C2 [Example 2A-34]
29.6,123,CC(C)n1ncc2c1C(=O)CC1(CCN(C(=O)c3cc(F)c4nc[nH]c4c3)CC1)C2 [Example 2A-36]
34.5,87.4,CC(C)n1ncc2c1C(=O)CC1(CCN(C(=O)c3cc(F)c4[nH]ncc4c3)CC1)C2 [Example 2A-37]
99.7,297,CC(C)n1ncc2c1C(=O)CC1(CCN(C(=O)c3cc4cnccc4nc3N)CC1)C2 [Example 2A-38]
122,527,CC(C)(C)n1ncc2c1C(=O)CC1(CCN(C(=O)c3nc4ccccc4nc3N)CC1)C2 [Example 2A-39]
116,262,CC(C)n1ncc2c1C(=O)CC1(CCN(C(=O)c3cnc4ccnn4c3N)CC1)C2 [Example 2A-40]
90,176,CC(C)(C)n1ncc2c1C(=O)CC1(CCN(C(=O)c3cnc4[nH]ncc4c3)CC1)C2 [Example 2A-41]
766,1300,Cc1nc2ccc(C(=O)N3CCC4(CC3)CC(=O)c3c(cnn3C3COC3)C4)cc2[nH]1 [Example 2A-42]
149,304,CC(C)(C)n1ncc2c1C(=O)CC1(CCN(C(=O)c3cnc4ccnn4c3N)CC1)C2 [Example 2A-43]
30.2,106,CC(C)(C)n1ncc2c1C(=O)CC1(CCN(C(=O)c3cc(F)c4[nH]ncc4c3)CC1)C2 [Example 2A-44]
32.9,73.7,Cn1c(=O)[nH]c2cc(C(=O)N3CCC4(CC3)CC(=O)c3c(cnn3C(C)(C)C)C4)ccc21 [Example 2A-45]
29.5,167,CC(C)n1ncc2c1C(=O)CC1(CCN(C(=O)c3ccc4c(c3)[nH]c(=O)n4C)CC1)C2 [Example 2A-46]
15.9,48.2,CC(C)n1ncc2c1C(=O)CC1(CCN(C(=O)c3cc(Cl)c4nc[nH]c4c3)CC1)C2 [Example 2A-47]
17.2,51.1,CC(C)(C)n1ncc2c1C(=O)CC1(CCN(C(=O)c3cc(Cl)c4nc[nH]c4c3)CC1)C2 [Example 2A-48]
71.6,92.1,Cn1c(=O)[nH]c2ccc(C(=O)N3CCC4(CC3)CC(=O)c3c(cnn3C(C)(C)C)C4)cc21 [Example 2A-49]

IC50 [1] [nM],IC50 [2] [nM],SMILES
29.9,72.7,CC(C)(C)n1ncc2c1C(=O)CC1(CCN(C(=O)c3cc(F)c4nc[nH]c4c3)CC1)C2 [Example 2A-51]
19.3,54.2,Cc1nc2c(Cl)cc(C(=O)N3CCC4(CC3)CC(=O)c3c(cnn3C(C)C)C4)cc2[nH]1 [Example 2A-52]
17.2,39.6,Cc1nc2c(Cl)cc(C(=O)N3CCC4(CC3)CC(=O)c3c(cnn3C(C)(C)C)C4)cc2[nH]1 [Example 2A-53]
51.5,214,Cc1nc2c(F)cc(C(=O)N3CCC4(CC3)CC(=O)c3c(cnn3C(C)C)C4)cc2[nH]1 [Example 2A-54]
105,266,Cc1nc2c(F)cc(C(=O)N3CCC4(CC3)CC(=O)c3c(cnn3C(C)(C)C)C4)cc2[nH]1 [Example 2A-55]
15.1,31.2,CC(C)(C)n1ncc2c1C(=O)CC1(CCN(C(=O)c3cc(Cl)c4[nH]c(=O)[nH]c4c3)CC1)C2 [Example 2A-56]
20.8,66.5,CC(C)n1ncc2c1C(=O)CC1(CCN(C(=O)c3cc(Cl)c4[nH]c(=O)[nH]c4c3)CC1)C2 [Example 2A-57]
74.1,280,CC(C)n1ncc2c1C(=O)CC1(CCN(C(=O)c3cnc4c(cnn4C)c3N)CC1)C2 [Example 2A-58]
69.2,115,Cn1ncc2c(N)c(C(=O)N3CCC4(CC3)CC(=O)c3c(cnn3C(C)(C)C)C4)cnc21 [Example 2A-59]
3990,8240,Cc1noc(-c2cc(C(=O)N3CCC4(CC3)CC(=O)c3c(cnn3C(C)C)C4)ccn2)n1 [Example 2A-60]
2190,2320,CC(C)n1ncc2c1C(=O)CC1(CCN(C(=O)c3cnc4ccccc4n3)CC1)C2 [Example 2A-61]
1280,4210,CC(=O)Nc1cccc(C(=O)N2CCC3(CC2)CC(=O)c2c(cnn2C(C)C)C3)n1 [Example 2A-62]
3200,9330,CC(C)n1ncc2c1C(=O)CC1(CCN(C(=O)c3ccc4cnccc4n3)CC1)C2 [Example 2A-63]
253,229,CC(C)n1ncc2c1C(=O)CC1(CCN(C(=O)c3cc4ccncc4[nH]3)CC1)C2 [Example 2A-64]
51.5,74.9,CC(C)n1ncc2c1C(=O)CC1(CCN(C(=O)c3cc(Cl)c4cn[nH]c4c3)CC1)C2 [Example 2A-65]
14000,30000,CC(C)n1ncc2c1C(=O)CC1(CCN(C(=O)c3cnc(N4CCOCC4)nc3)CC1)C2 [Example 2A-66]
653,799,CC(C)n1ncc2c1C(=O)CC1(CCN(C(=O)c3cc4[nH]ccn4n3)CC1)C2 [Example 2A-67]
51.2,68.4,CC(C)n1ncc2c1C(=O)CC1(CCN(C(=O)c3ccc4cn[nH]c4c3)CC1)C2 [Example 2A-68]
42.9,122,CC(C)n1ncc2c1C(=O)CC1(CCN(C(=O)c3ccc4ncccc4c3O)CC1)C2 [Example 2A-69]
